Laboratory results reported in PubChem BioAssay AID2425 (Vanderbilt High Throughput Screening Facility, 2010).
Calls of active or inactive are those of the source.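 Rule for the calls: active = fitted dose-response curve with goodness of fit R² above 0.5; inactive = the rest.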

Target: Muscarinic acetylcholine receptor M1 (Rattus norvegicus) (UniProt P08482)
Test: rat M1 positive allosteric modulator potency, dose response, cell-based, calcium mobilization, CHO-K1, ACh EC20 (AID 2425)
Details: CHO-K1 rat M1, Fluo-4 calcium, PAM with ACh EC20

Chain of Muscarinic acetylcholine receptor M1 (Rattus norvegicus) (P08482 whole entry, looked up): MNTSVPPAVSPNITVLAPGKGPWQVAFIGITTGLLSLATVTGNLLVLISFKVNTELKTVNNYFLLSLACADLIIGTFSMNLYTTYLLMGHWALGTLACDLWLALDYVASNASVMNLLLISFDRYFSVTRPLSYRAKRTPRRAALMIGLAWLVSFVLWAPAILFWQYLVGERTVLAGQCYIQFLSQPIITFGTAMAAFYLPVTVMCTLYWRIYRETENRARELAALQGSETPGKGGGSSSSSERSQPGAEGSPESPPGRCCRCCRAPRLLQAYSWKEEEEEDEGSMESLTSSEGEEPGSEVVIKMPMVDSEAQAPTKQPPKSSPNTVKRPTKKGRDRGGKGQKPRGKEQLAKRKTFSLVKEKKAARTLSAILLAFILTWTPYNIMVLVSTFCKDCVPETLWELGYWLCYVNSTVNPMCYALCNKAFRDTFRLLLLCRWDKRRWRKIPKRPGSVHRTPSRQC

Compound | potentiation, % max ACh (at 30 µM (top of the series)) | EC50
O=C1C(=O)N(Cc2ccc(Oc3ccccc3)cc2)c2ccc(OC(F)(F)F)cc21 | inactive | –
Cc1cc(NC(=O)CS(=O)(=O)c2cn(Cc3cccc(Cl)c3)c3ccccc23)no1 | – | 5.86 µM
